Consider 9 compounds from US20230097866A1, “BACTERIAL TOPOISOMERASE INHIBITORS DERIVED FROM ISOMANNIDE” (Ohio State Innovation Foundation, priority 2020, published 2023).

For data set [1], the system named is S. aureus strain isolated from a cystic fibrosis patient. Put plainly: MIC, CLSI broth microdilution, CF isolate. Particulars: Staphylococcus aureus, read-out: MIC CF isolate. Type of data set: cell-based. Background: Broth dilution looks for growth in wells or tubes with falling amounts of substance.
In the next data set the test system is USA300 isolate of MRSA. Briefly: MIC, CLSI broth microdilution, USA300 MRSA. In kind it is cell-based. Conditions: Staphylococcus aureus, read-out: MIC USA300.
Another data set deals with TopoIV from S. aureus (Staphylococcus aureus, UniProt P0C1U9). Put plainly: biochemical. Type of data set: biochemical.
Sequence of TopoIV from S. aureus (P0C1S7 whole entry): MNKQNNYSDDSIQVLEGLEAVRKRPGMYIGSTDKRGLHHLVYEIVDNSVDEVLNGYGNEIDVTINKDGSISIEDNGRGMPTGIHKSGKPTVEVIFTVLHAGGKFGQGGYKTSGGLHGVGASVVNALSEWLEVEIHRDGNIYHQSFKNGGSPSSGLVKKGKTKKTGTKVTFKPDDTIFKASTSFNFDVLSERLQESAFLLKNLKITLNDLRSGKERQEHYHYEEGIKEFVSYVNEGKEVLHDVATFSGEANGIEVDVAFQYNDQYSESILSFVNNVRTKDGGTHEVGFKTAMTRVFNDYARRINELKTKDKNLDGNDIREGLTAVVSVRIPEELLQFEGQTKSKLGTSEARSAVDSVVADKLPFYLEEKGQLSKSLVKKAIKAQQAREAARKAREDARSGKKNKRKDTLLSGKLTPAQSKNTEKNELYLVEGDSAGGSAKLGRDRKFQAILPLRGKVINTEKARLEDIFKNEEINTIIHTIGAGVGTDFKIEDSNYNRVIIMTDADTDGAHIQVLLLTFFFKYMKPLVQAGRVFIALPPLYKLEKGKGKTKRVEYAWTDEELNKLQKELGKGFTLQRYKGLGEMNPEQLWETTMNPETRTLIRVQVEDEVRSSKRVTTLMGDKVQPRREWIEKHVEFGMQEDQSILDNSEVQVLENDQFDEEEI
Sequence of TopoIV from S. aureus (P0C1U9 whole entry): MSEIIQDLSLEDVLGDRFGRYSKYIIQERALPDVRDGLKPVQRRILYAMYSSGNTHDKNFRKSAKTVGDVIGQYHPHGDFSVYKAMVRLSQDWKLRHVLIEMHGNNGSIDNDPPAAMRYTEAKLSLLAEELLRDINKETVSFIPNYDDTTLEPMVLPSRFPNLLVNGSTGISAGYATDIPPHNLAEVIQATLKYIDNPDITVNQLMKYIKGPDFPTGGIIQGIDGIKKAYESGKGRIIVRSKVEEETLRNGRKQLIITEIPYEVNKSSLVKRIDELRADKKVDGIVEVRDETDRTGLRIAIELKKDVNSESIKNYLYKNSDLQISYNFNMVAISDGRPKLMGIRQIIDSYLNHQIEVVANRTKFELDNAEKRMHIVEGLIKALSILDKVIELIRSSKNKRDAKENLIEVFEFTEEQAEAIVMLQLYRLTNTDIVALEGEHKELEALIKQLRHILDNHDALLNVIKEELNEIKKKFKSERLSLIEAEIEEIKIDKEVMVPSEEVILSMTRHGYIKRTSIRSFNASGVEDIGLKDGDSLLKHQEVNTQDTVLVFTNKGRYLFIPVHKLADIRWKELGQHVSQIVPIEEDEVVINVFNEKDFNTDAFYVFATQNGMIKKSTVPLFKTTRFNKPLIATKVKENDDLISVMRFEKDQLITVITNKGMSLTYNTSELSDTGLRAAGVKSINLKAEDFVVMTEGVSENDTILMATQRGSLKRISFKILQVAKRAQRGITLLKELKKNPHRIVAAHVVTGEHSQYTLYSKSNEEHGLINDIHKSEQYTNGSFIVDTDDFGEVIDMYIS
Data set [2] has as its system Mycobacterium avium complex (ATCC 700891 MAC 101). Briefly: Ex vivo efficacy against M. avium. In kind it is cell-based. Conditions: concentration for >90% inhibition. The protocol:
(§1) Ex vivo efficacy was determined by inhibition of Mycobacterium avium complex (ATCC 700891 MAC 101), and Mycobacterium abscessus (ATCC 19977). Cytotoxicity tests were carried out against three human cell lines, THP-1 (ATCC TIB-202), HepG2 (ATCC HB-8065), and HeLa (ATCC CCL-2). IC50 values were calculated from dose response curves to determine cytotoxicity of test compounds.

Data set [3] deals with S. aureus ATCC 29213. Put plainly: MIC, CLSI broth microdilution, S. aureus ATCC 29213. Particulars: Staphylococcus aureus. In kind it is cell-based.
Data set [4] relates to M tuberculosis H37Rv in THP-1 macrophages. Put plainly: Ex vivo efficacy against M. tuberculosis in THP-1 macrophages. Type of data set: cell-based, Mycobacterium tuberculosis.
In a further data set the test system is M. tuberculosis H37Rv. Briefly: MIC, microbroth dilution, M. tuberculosis H37Rv. In kind it is cell-based. Particulars: Mycobacterium tuberculosis.
The target in another data set is S. aureus DNA gyrase (Staphylococcus aureus, UniProt P20831). Put plainly: Inhibition of DNA gyrase, biochemical assay (Inspiralis).
Sequence of S. aureus DNA gyrase (P0A0K8 whole entry): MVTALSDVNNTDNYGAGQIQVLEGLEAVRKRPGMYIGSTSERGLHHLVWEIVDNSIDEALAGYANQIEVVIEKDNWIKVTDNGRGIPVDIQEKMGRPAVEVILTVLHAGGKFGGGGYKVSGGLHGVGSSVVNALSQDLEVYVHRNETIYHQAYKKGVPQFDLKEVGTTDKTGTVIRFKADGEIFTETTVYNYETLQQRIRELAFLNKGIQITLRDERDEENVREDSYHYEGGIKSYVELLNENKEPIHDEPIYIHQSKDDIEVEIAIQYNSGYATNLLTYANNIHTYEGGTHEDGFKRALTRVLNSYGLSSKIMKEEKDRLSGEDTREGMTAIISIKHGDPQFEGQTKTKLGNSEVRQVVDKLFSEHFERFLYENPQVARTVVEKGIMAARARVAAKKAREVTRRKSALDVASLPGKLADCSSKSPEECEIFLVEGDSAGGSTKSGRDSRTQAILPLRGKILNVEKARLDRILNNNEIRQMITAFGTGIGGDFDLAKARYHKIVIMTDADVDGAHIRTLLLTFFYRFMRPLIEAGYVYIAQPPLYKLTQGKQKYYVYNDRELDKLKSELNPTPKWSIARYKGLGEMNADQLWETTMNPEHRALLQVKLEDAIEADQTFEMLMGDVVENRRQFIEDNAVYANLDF
Sequence of S. aureus DNA gyrase (P20831 whole entry): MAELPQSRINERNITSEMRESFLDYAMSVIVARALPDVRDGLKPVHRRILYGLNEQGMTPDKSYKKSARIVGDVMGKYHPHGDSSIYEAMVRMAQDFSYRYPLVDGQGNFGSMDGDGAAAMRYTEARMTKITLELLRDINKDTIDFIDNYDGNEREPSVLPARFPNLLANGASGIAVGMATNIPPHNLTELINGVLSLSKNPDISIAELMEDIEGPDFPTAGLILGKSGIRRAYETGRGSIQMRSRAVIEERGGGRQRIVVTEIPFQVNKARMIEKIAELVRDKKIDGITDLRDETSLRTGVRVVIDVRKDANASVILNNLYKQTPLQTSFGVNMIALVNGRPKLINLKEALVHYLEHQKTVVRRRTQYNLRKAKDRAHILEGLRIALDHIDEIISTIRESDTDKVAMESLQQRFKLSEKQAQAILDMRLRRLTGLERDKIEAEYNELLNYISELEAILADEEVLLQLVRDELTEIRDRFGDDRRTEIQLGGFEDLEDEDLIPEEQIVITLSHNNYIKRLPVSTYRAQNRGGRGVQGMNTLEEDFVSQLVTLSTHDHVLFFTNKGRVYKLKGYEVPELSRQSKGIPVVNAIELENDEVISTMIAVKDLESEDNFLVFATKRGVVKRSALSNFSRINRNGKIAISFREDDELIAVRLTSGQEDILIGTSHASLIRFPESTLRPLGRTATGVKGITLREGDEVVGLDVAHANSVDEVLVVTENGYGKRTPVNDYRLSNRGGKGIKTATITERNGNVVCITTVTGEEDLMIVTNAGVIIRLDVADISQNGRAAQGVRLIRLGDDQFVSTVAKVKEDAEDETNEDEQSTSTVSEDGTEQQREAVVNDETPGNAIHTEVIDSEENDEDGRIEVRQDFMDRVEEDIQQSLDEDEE
For data set [5], the system named is Mycobacterium abscessus (ATCC 19977). Put plainly: Ex vivo efficacy against M. abscessus. In kind it is cell-based. Particulars: concentration for >90% inhibition. As to the method:
as §1

The test system of the next data set is M. avium 700891. Put plainly: MIC, microbroth dilution, M. avium. In kind it is cell-based. Particulars: Mycobacterium avium. The protocol:
(§2) MICs were determined against the NTM strains […] avium ATCC 700891 MAC101 and M. abscessus 19977 using the microbroth dilution method. MIC was determined using optical density and a calorimetric growth indicator. For optical density ([…]), the MIC is considered the first concentration to inhibit growth when compared to an untreated growth control. A calorimetric growth indicator (i.e. Alamar Blue) was also added to confirm MIC value by observing color change from […], indicating no active growth.

A further data set has as its target hERG (Homo sapiens, UniProt Q12809). Put plainly: hERG IC50, IonWorks Barracuda (Charles River). An excerpt: The design of these isomannide-detived NBTIs focused on enhanced polarity and modulation of basicity through the two electronegative oxygen atoms in the linker.
A further data set deals with M. abscessus 19977. Briefly: MIC, microbroth dilution, M. abscessus. In kind it is cell-based, Mycobacterium abscessus. Conditions: Mycobacteroides abscessus. The protocol: as §2
For data set [6], the system named is Klebsiella pneumoniae LSI-2999. Conditions: previously published data for 27 and ciprofloxacin; cited from earlier work.
In data set [7] the test system is Streptococcus pneumoniae LSI-4246. Conditions: penicillin-resistant strain; previously published data for 27 and ciprofloxacin; cited from earlier work.
Data set [8] has as its system Pseudomonas aeruginosa LSI-2946. Particulars: previously published data for 27 and ciprofloxacin; cited from earlier work.
In data set [9] the test system is Enterococcus faecalis ATCC 29212. Particulars: previously published data for 27 and ciprofloxacin; cited from earlier work.
Data set [10] relates to Enterococcus faecium DRL-4193. Particulars: vancomycin-susceptible strain; previously published data for 27 and ciprofloxacin; cited from earlier work.
Data set [11] has as its system Escherichia coli ATCC 25922. Conditions: previously published data for 27 and ciprofloxacin; cited from earlier work.
The subject of data set [12] is Streptococcus pyogenes LSI-1235. Particulars: previously published data for 27 and ciprofloxacin; cited from earlier work.
Data set [13] has as its system Acinetobacter baumannii LSI-2957. Conditions: previously published data for 27 and ciprofloxacin; cited from earlier work.
The subject of data set [14] is S. aureus ATCC 29213. Briefly: microbe, parasite or virus in culture. In kind it is cell-based. Particulars: Staphylococcus aureus, ATCC29213, read-out: S. aureus ATCC 29213 MIC (n = 2). As to the method:
In order to determine the spontaneous mutation frequency of investigational agents (Table 4), the MIC was first determined using the agar dilution method as recommended by the Clinical and Laboratory Standards Institute.
Triplicate independent inocula of S. aureus ATCC 29213 were evaluated.

Data set [15] deals with S. aureus ATCC 29213. In kind it is cell-based, Staphylococcus aureus.
Where [16] appears, read: S. aureus TopoIV, read-out: TopoIV IC50.
Where [17] appears, read: ATCC29213, CLSI broth microdilution, triplicate, read-out: MIC ATCC 29213.
The mark [18] stands for this setting: S. aureus DNA gyrase, Inspiralis, Ltd., read-out: Gyrase IC50.
Where [19] appears, read: CLSI broth microdilution, ciprofloxacin-resistant MRSA.
The mark [20] stands for this setting: ATCC29213, read-out: MIC ATCC 29213.

SMILES strings stand for the structures. ≈ marks a conversion by molar mass, not a printed value. Like-named read-outs stand apart in the source and are kept apart here. Bounds are passed on as bounds.

Sequence of hERG (Q12809 whole entry): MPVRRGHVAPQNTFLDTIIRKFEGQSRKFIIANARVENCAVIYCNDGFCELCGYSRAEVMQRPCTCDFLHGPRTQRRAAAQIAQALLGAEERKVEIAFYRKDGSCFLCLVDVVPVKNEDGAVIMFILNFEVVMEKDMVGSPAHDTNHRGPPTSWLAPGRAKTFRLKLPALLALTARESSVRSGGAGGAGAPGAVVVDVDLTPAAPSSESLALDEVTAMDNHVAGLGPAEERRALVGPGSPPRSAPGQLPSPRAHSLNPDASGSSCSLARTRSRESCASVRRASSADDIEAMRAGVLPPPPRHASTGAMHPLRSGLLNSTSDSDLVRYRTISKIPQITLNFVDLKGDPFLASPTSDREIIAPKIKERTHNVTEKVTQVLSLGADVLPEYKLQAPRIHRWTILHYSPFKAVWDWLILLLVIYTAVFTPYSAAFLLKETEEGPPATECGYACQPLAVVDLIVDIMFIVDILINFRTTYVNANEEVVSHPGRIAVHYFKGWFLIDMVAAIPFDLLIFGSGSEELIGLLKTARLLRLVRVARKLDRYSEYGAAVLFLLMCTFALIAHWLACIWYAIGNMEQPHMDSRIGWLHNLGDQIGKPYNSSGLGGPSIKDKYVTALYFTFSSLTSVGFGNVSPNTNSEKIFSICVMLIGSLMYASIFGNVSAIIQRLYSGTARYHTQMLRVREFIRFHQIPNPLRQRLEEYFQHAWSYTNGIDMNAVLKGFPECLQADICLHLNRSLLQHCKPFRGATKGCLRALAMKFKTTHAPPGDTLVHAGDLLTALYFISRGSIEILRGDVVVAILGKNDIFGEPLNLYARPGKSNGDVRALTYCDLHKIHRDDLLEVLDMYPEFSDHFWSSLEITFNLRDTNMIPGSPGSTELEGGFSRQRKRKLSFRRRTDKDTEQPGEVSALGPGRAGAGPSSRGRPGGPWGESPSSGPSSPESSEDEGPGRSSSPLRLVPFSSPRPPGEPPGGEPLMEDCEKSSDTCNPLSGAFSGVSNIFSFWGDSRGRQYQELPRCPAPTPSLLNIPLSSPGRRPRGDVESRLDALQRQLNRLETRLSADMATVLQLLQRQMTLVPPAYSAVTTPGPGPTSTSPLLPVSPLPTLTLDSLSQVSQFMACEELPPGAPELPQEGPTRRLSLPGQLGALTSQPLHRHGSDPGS

For `CN[C@H](CC(C)C)C(=O)N[C@H]1C(=O)N[C@@H](CC(N)=O)C(=O)N[C@H]2C(=O)N[C@H]3C(=O)N[C@H](C(=O)N[C@H](C(=O)O)c4cc(O)cc(O)c4-c4cc3ccc4O)[C@H](O)c3ccc(c(Cl)c3)Oc3cc2cc(c3O[C@@H]2O[C@H](CO)[C@@H](O)[C@H](O)[C@H]2O[C@H]2C[C@](C)(N)[C@H](O)[C@H](C)O2)Oc2ccc(cc2Cl)[C@H]1O` [vancomycin, reference compound], the MIC (in data set [1]; with USA300 isolate of MRSA) was 1 to 2 µg/mL (≈ 0.69 to 1.38 µM) throughout.

Turning to `COc1ccc2ncc(F)c(CC[C@@]3(O)CO[C@@H]4[C@@H](NCc5ccc(C)cc5)CO[C@@H]43)c2n1` [Compound 25, (3R,3aS,6S,6aR)-3-(2-(3-fluora-6-methoxy-1,5-naphthyridin-4-yl)ethyl)-6-((4-methyllbenzyl)amino)hexahydrofuro[3,2-b]furan-3-ol], the IC50 – broadly, the concentration that gives 50% inhibition – at TopoIV from S. aureus (setting [16]) was determined as 7500 nM; on S. aureus DNA gyrase (setting [18]), 180 nM; at hERG (read-out: hERG IC50, IonWorks Barracuda), 4200 nM. Moreover, the “TopoIV/gyrase IC50 ratio” value on TopoIV from S. aureus (S. aureus enzymes) is recorded as 42. Besides, in [2], the “Ex vivo efficacy M. avium (>90% inhibition)” value was greater than 128 µg/mL. Moreover, the MIC is 2 µg/mL (≈ 4.41 µM) in data set [1] (CLSI broth microdilution); 1 to 2 µg/mL (≈ 2.21 to 4.41 µM) with S. aureus ATCC 29213 [3] (setting [17]); 8 µg/mL (≈ 17.6 µM) in the data set with M. tuberculosis H37Rv; 2 µg/mL (≈ 4.41 µM) in the data set on USA300 isolate of MRSA (setting [19]); 16 µg/mL (≈ 35.3 µM) against M. avium 700891; 8 µg/mL (≈ 17.6 µM) with M. abscessus 19977. In addition, in [4], the “M. tuberculosis ex vivo efficacy (% inhibition at MIC)” value was determined as 80%. For the same compound, the “Ex vivo efficacy M. abscessus (>90% inhibition)” value in data set [5] is greater than 128 µg/mL.

On to `COc1ccc2ncc(F)c(CC[C@@]3(O)CO[C@@H]4[C@@H](NCc5ccc6c(n5)NC(=O)CO6)CO[C@@H]43)c2n1` [Compound 7, 6-((((3S,3aR,6R,6aS)-6-(2-(3-fluoro-6-methoxy-1,5-tnaphthyriditn-4-yl)ethyl)-6-hydroxyhexahydrofuro[3,2-b]furan-3-yl)amino)methyl)-2H-pyrido[3,2-b][1,4]oxazin-3(4H)-one], for which the “TopoIV IC50” value on TopoIV from S. aureus is “No activity”. The MIC in data set [1] is 2 µg/mL (≈ 3.91 µM); in the data set with S. aureus ATCC 29213 [3] (setting [20]), 2 µg/mL (≈ 3.91 µM); in the data set on USA300 isolate of MRSA, 1 to 2 µg/mL (≈ 1.95 to 3.91 µM). Further, the half-inhibitory concentration (IC50) at S. aureus DNA gyrase is 540 nM.

As to `O=C(O)c1cn(C2CC2)c2cc(N3CCNCC3)c(F)cc2c1=O` [ciprofloxacin], in data set [6], the “MIC Klebsiella pneumoniae LSI-2999” value is 0.25 µg/mL (≈ 0.754 µM). Moreover, the “MIC Streptococcus pneumoniae LSI-4246” value in data set [7] was 0.5 µg/mL (≈ 1.51 µM). The “MIC Pseudomonas aeruginosa LSI-2946” value in data set [8] was 0.5 µg/mL (≈ 1.51 µM). In data set [9], the “MIC Enterococcus faecalis ATCC 29212” value was 0.5 µg/mL (≈ 1.51 µM). In addition, in data set [10], the “MIC Enterococcus faecium DRL-4193” value is 0.25 µg/mL (≈ 0.754 µM). Also, the “MIC Escherichia coli ATCC 25922 (n = 2)” value in data set [11] was no more than 0.06 µg/mL. Moreover, in [12], the “MIC Streptococcus pyogenes LSI-1235” value was 0.25 µg/mL (≈ 0.754 µM). Further, the “MIC Acinetobacter baumannii LSI-2957” value in data set [13] is 0.25 µg/mL (≈ 0.754 µM).

Consider `COc1ccc2nccc(CC[C@@]3(O)CO[C@@H]4[C@@H](NCc5ccccc5)CO[C@@H]43)c2c1` [Compound 22, (3R,3aS,6S,6aR)-6-(benzylamino)-3-(2-(6-methoxyquinolin-4-yl)ethyl)hexahydrofuro[3,2-b]furan-3-ol], for which the MIC (in [1] (CLSI broth microdilution); in the data set on S. aureus ATCC 29213 [3] (setting [17]); in the data set with USA300 isolate of MRSA (setting [19])) was greater than 8 µg/mL throughout.

Consider `COc1ccc2ncc(F)c(CC[C@@]3(O)CO[C@@H]4[C@@H](NCc5ccc(Cl)c(Cl)c5)CO[C@@H]43)c2n1` [Compound 26, (3R,3aS,6S,6aR)-6-((3,4-dichlorobenzyl)amino)-3-(2-(3-fluoro-6-methoxy-1,5-napkthyridin-4-yl)ethyl)hexahydrofuro[3,2-b]-furan-3-ol], for which the IC50 came out at 2900 nM on TopoIV from S. aureus (setting [16]) and 200 nM on S. aureus DNA gyrase (setting [18]). In addition, the “Ex vivo efficacy M. avium (>90% inhibition)” value in [2] is greater than 128 µg/mL. The MIC in [1] (CLSI broth microdilution) is 0.5 µg/mL (≈ 0.984 µM); with S. aureus ATCC 29213 [3] (setting [17]), 0.25 to 0.5 µg/mL (≈ 0.492 to 0.984 µM); against M. tuberculosis H37Rv it was 2 µg/mL (≈ 3.93 µM); in the data set with USA300 isolate of MRSA (setting [19]), 0.5 µg/mL (≈ 0.984 µM); against M. avium 700891, 1 µg/mL (≈ 1.97 µM); against M. abscessus 19977 it was 8 µg/mL (≈ 15.7 µM). Also, the “M. tuberculosis ex vivo efficacy (% inhibition at MIC)” value in data set [4] is recorded as 90%. In addition, in data set [5], the “Ex vivo efficacy M. abscessus (>90% inhibition)” value stood at 32 µg/mL.

On to `COc1ccc2ncc(F)c(CC[C@@]3(O)CO[C@@H]4[C@@H](NCc5ccc6c(c5)OCCO6)CO[C@@H]43)c2n1` [Compound 24, (3R,3aS,6S, 6aR)-6-(((2,3-dihydrobenzo[b][1,4]dioxin-6-yl)methyl)amino)-3-(2-(3-fluoro-6-methoxy-1,5-naphthyridin-4-yl)ethyl)hexahydrofuro[3,2-b]furan-3-ol], for which the figures for the concentration for half-maximal inhibition (IC50) at TopoIV from S. aureus and against S. aureus DNA gyrase were 2600 nM and 200 nM, respectively. Moreover, on TopoIV from S. aureus, the “TopoIV/gyrase IC50 ratio” value worked out at 13. The “improvement of TopoIV/gyrase IC50 ratio as compared to dioxane 27” value at TopoIV from S. aureus is listed as roughly 2 fold. Also, the MIC in data set [1] was 1 µg/mL (≈ 2.01 µM); with S. aureus ATCC 29213 [3] (setting [20]) it was 0.5 to 1 µg/mL (≈ 1 to 2.01 µM); with S. aureus ATCC 29213 [14], 0.5 µg/mL (≈ 1 µM); with USA300 isolate of MRSA it was 1 µg/mL (≈ 2.01 µM). In addition, in the data set with S. aureus ATCC 29213 [15], the “Spontaneous mutation frequency (8X MIC)” value is 1.35 × 10^−9 (mean, n = 2). In addition, in the data set with S. aureus ATCC 29213 [15], the “Spontaneous mutation frequency (16X MIC)” value is reported as 4.49 × 10^−10 (mean, n = 2). Moreover, the “hERG IC50 higher than 31 and 32” value at hERG (24 versus cyclohexane-linked 31 and 32) is listed as greater than 8 fold.

Consider `COc1ccc2nccc(CC[C@@]3(O)CO[C@@H]4[C@@H](NCc5ccc6c(c5)OCCO6)CO[C@@H]43)c2c1` [Compound 21, (3R,3aS,6S, 6aR)-6-(((2,3-dihydrobenzo[b][1,4]dioxin-6-yl)methyl)amino)-3-(2-(6-methoxyquinalin-4-yl)ethyl)hexahydrofuro[3,2-b]furan-3-ol], for which the MIC in data set [1] (CLSI broth microdilution) is 16 µg/mL (≈ 33.4 µM); in the data set on S. aureus ATCC 29213 [3] (setting [17]) it was 16 to 32 µg/mL (≈ 33.4 to 66.9 µM); in the data set on USA300 isolate of MRSA (setting [19]), 16 µg/mL (≈ 33.4 µM).

For `COc1ccc2nccc(CC[C@@]3(O)CO[C@@H]4[C@@H](NCc5ccc(C)cc5)CO[C@@H]43)c2c1` [Compound 23, (3R,3aS,6S,6aR)-3-(2-(6-methoxyquinolin-4-yl)ethyl)-6-((4-methylbenzyl)amino)hexahydrofuro[3,2-h]furan-3-ol], the MIC (in data set [1] (CLSI broth microdilution); in the data set on S. aureus ATCC 29213 [3] (setting [17]); in the data set on USA300 isolate of MRSA (setting [19])) was greater than 8 µg/mL throughout.
